Biological target: NADH-dependent nitrate reductase ([Candida] boidinii, UniProt A0ACB5TRL5)
Sequence (A0ACB5TRL5 entry or part of it): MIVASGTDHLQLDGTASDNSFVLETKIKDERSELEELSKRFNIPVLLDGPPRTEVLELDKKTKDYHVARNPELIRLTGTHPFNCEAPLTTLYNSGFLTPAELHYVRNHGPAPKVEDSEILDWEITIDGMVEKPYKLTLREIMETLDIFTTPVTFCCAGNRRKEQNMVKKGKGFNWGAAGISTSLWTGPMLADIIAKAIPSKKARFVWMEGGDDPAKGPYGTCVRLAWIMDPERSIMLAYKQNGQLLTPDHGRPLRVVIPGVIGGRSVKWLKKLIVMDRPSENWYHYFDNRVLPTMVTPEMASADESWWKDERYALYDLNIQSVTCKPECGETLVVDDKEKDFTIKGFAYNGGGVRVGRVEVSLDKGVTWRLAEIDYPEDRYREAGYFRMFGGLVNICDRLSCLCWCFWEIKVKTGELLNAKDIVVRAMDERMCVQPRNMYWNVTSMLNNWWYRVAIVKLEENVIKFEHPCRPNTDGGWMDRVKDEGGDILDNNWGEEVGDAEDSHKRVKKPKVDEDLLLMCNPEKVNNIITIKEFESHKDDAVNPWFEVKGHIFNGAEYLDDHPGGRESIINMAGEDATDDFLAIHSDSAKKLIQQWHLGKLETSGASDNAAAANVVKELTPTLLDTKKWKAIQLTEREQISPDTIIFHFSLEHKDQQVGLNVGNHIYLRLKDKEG

Structure (SMILES): O=NO [nitrite]
- End-product inhibition: up to 50%
